In US20250333418A1, “PURINE COMPOUNDS, COMPOSITIONS COMPRISING THEM AND USES THEREOF” (Novo Nordisk A/S, priority 2022, published 2025):

What was measured:
human CB1 receptor [1] = target: T1, human CB1 receptor (Homo sapiens, UniProt P21554); test: bioSensAll β-arrestin2 plasma membrane translocation (+GRK2) BRET biosensor assay in HEK293 cells transfected with hCB1; test compound added before EC75-80 of agonist CP55,940 (100 nM); assay type: cell-based; conditions: βArrestin2 (+GRK2) BRET biosensor, vs CP55,940 100 nM (EC75-80), read-out: CB1 wt βarr2 IC50
T1 construct: expressed in transfected cells; host or cells: HEK293
T1 sequence (P21554 whole entry): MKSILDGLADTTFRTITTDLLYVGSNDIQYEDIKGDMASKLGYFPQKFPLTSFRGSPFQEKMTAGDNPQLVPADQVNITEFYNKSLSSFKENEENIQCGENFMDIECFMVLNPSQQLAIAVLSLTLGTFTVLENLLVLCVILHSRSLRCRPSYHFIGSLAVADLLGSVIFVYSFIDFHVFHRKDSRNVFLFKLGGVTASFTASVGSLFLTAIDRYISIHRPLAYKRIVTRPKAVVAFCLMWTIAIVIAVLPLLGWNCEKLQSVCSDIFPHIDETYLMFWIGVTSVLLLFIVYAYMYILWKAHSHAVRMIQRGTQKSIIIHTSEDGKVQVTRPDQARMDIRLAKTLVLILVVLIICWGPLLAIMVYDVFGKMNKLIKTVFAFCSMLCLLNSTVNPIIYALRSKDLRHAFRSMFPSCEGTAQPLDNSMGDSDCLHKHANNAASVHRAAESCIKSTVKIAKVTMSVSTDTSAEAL
Outline: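 Antagonist mode: compound at 12 concentrations up to 600 nM, then 100 nM CP55,940 3–5 min later, on hCB1-transfected HEK293 cells carrying the β-arrestin2 plasma-membrane biosensor plus GRK2. After overnight 37 °C incubation, 515/400 nm BRET ratio measured with 2 µM methoxy e-CTZ and standardized against positive/negative controls.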

human CB1 receptor [2] = target: T1, human CB1 receptor; test: bioSensAll GAPL-Gi2 BRET biosensor assay in HEK293 cells transfected with hCB1; test compound added before EC75-80 of agonist CP55,940 (0.1 nM); assay type: cell-based; conditions: vs CP55,940 0.1 nM (EC75-80), read-out: CB1 wt Gi2 IC50
Outline: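 Test compounds at 12 doses up to 600 nM preceded a 0.1 nM CP55,940 challenge in hCB1/GAPL-Gi2 HEK293 cells. After overnight 37° C incubation, methoxy e-coelenterazine (2 µM final) was added and the 515/400 nm BRET ratio normalized to positive and negative controls.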

Row | Compound | IC50 (human CB1 receptor [1]) [nM] | IC50 (human CB1 receptor [2]) [nM]
1 | CCOc1nc(OCC(C)(C)O)nc2c1nc(-c1ccccc1Cl)n2-c1ccc(Cl)cc1 [Compound 99] | 36.2 | 4.51
2 | CC(C)Oc1nc(OC(C)C)c2nc(-c3ccccc3Cl)n(-c3ccc(Cl)cc3)c2n1 [Compound 205] | 54.6 | 6.04
3 | CC1(C(N)=O)CCN(c2nc(N3CC[C@@H](O)C3)nc3c2nc(-c2ccc(C#N)nc2)n3-c2ccc(Cl)cc2)CC1 [Compound 131, 1-[9-(4-chlorophenyl)-8-(6-cyano-3-pyridyl)-2-[(3R)-3-hydroxypyrrolidin-1-yl]purin-6-yl]-4-methyl-piperidine-4-carboxamide] | 2.95 | 0.713
4 | COC(=O)N1CCN(c2nc(OCC(C)(C)O)nc3c2nc(-c2ccccc2Cl)n3-c2ccc(Cl)cc2)CC1 [Compound 224] | 7.99 | 1.27
5 | C[C@@H](O)COc1nc(N2CCC(C)(C(N)=O)CC2)c2nc(-c3ccccc3Cl)n(-c3ccc(Cl)cc3)c2n1 [Compound 79, 1-[8-(2-chlorophenyl)-9-(4-chlorophenyl)-2-[(2R)-2-hydroxypropoxy]purin-6-yl]-4-methyl-piperidine-4-carboxamide] | 4.37 | 0.868
6 | CC(C)(O)COc1nc(N2CC3CCC(C2)O3)c2nc(-c3ccccc3Cl)n(-c3ccc(Cl)cc3)c2n1 [Compound 214] | 6.06 | 1.09
7 | FC(F)(F)C1CCN(c2nc(N3C[C@H]4CCC[C@H]4C3)nc3c2nc(-c2ccccc2Cl)n3-c2ccc(Cl)cc2)CC1 [Compound 30, 2-[(3aS,6aR)-3,3a,4,5,6,6a-hexahydro-1H-cyclopenta[c]pyrrol-2-yl]-8-(2-chlorophenyl)-9-(4-chlorophenyl)-6-[4-(trifluoromethyl)-1-piperidyl]purine] | 60 | 14.4
8 | CN(CCO)c1nc(N(C)CCO)c2nc(-c3ccccc3Cl)n(-c3ccc(Cl)cc3)c2n1 [Compound 200] | 25.2 | 1.72
9 | CN(C)C(=O)c1nc(N2CCC(C)(C(N)=O)CC2)c2nc(-c3ccccc3Cl)n(-c3ccc(Cl)cc3)c2n1 [Compound 2, 6-(4-carbamoyl-4-methyl-1-piperidyl)-8-(2-chlorophenyl)-9-(4-chlorophenyl)-N,N-dimethyl-purine-2-carboxamide] | 63.5 | 10.5
10 | CNCCOc1nc(N2CCC(C(N)=O)CC2)c2nc(-c3ccccc3Cl)n(-c3ccc(Cl)cc3)c2n1 [Compound 156] | > 5000 | 54.7
11 | CC1(C(N)=O)CCN(c2nc(OCCCO)nc3c2nc(-c2ccccc2Cl)n3-c2ccc(Cl)cc2)CC1 [Compound 6, 1-[8-(2-chlorophenyl)-9-(4-chlorophenyl)-2-(3-hydroxypropoxy)purin-6-yl]-4-methyl-piperidine-4-carboxamide] | 4.78 | 0.861
12 | CCNC1(C(N)=O)CCN(c2nc(C#N)nc3c2nc(-c2ccccc2Cl)n3-c2ccc(Cl)cc2)CC1 [Compound 146, 1-(8-(2-chlorophenyl)-9-(4-chlorophenyl)-2-cyano-9H-purin-6-yl)-4-(ethylamino)piperidine-4-carboxamide] | 1.62 | 0.718
13 | CN(CC(C)(C)O)c1nc(N2CCC(C)(C(N)=O)CC2)c2nc(-c3ccc(C#N)nc3)n(-c3ccc(Cl)cc3)c2n1 [Compound 110, 1-[9-(4-chlorophenyl)-8-(6-cyano-3-pyridyl)-2-[(2-hydroxy-2-methyl-propyl)-methyl-amino]purin-6-yl]-4-methyl-piperidine-4-carboxamide] | 13 | 6.33
14 | CN(CCO)c1nc(N2CCC(C)(C(N)=O)CC2)c2nc(-c3ccc(C#N)cn3)n(-c3ccc(Cl)cc3)c2n1 [Compound 64, 1-[9-(4-chlorophenyl)-8-(5-cyano-2-pyridyl)-2-[2-hydroxyethyl(methyl)amino]purin-6-yl]-4-methyl-piperidine-4-carboxamide] | 27.9 | 2.45
15 | CN(CCO)c1nc(N2CC(C)(C#N)C2)c2nc(-c3ccccc3Cl)n(-c3ccc(Cl)cc3)c2n1 [Compound 75] | 0.834 | 0.399
16 | COC1(C)CN(c2nc(N(C)CCO)nc3c2nc(-c2ccccc2Cl)n3-c2ccc(Cl)cc2)C1 [Compound 76] | 1.18 | 0.51
17 | CN1C[C@H](F)C[C@H]1COc1nc(N2CCC(C)(C(N)=O)CC2)c2nc(-c3ccccc3Cl)n(-c3ccc(Cl)cc3)c2n1 [Compound 232] | 1.94 | 0.934
18 | O=S1(=O)CCC(Nc2nc(-n3ccnc3)nc3c2nc(-c2ccccc2Cl)n3-c2ccc(Cl)cc2)CC1 [Compound 164] | 22.8 | 1.66

Row | Compound | IC50 (human CB1 receptor [1]) [nM] | IC50 (human CB1 receptor [2]) [nM]
19 | CN(CCO)c1nc(N2CCC(C)(C(N)=O)CC2)c2nc(-c3ccncc3)n(-c3ccc(Cl)cc3)c2n1 [Compound 52, 1-[9-(4-chlorophenyl)-2-[2-hydroxyethyl(methyl)amino]-8-(4-pyridyl)purin-6-yl]-4-methyl-piperidine-4-carboxamide] | 29.1 | 2.06
20 | CN(CCO)c1nc(N2CCC(C)(O)CC2)c2nc(-c3ccccc3Cl)n(-c3ccc(Cl)cc3)c2n1 [Compound 181] | 0.592 | 0.181
21 | C[C@@H]1CN(c2nc(OCC(C)(C)O)nc3c2nc(-c2ccccc2Cl)n3-c2ccc(Cl)cc2)CCO1 [Compound 206] | 6.99 | 0.782
22 | CC(C)(O)COc1nc(N2CCC(C)(C(N)=O)CC2)c2nc(-c3cccnc3)n(-c3ccc(Cl)cc3)c2n1 [Compound 103, 1-[9-(4-chlorophenyl)-2-(2-hydroxy-2-methyl-propoxy)-8-(3-pyridyl)purin-6-yl]-4-methyl-piperidine-4-carboxamide] | > 5000 | 131
23 | CCNC1(C(N)=O)CCN(c2nc(N3CCCCC3)nc3c2nc(-c2ccccc2Cl)n3-c2ccc(Cl)cc2)CC1 [Compound 150] | 8.17 | 2.67
24 | CN(CCO)c1nc(N2CCC(C(N)=O)CC2)c2nc(-c3ccccc3Cl)n(-c3ccc(Cl)cc3)c2n1 [Compound 155] | 14.8 | 1.01
25 | C[C@H](O)CN(C)c1nc(N2CCC(C)(C(N)=O)CC2)c2nc(-c3ccccc3Cl)n(-c3ccc(Cl)cc3)c2n1 [Compound 55, 1-[8-(2-chlorophenyl)-9-(4-chlorophenyl)-2-[[(2S)-2-hydroxypropyl]-methyl-amino]purin-6-yl]-4-methyl-piperidine-4-carboxamide] | 4.58 | 0.647
26 | CN(CCO)c1nc(-c2ccc(C(F)(F)F)nc2)c2nc(-c3ccccc3Cl)n(-c3ccc(Cl)cc3)c2n1 [Compound 165] | 2.03 | 0.413
27 | CO[C@@H]1CCN(c2nc(N3CCC(C)(C(N)=O)CC3)c3nc(-c4ccccc4Cl)n(-c4ccc(Cl)cc4)c3n2)C1 [Compound 91, 1-[8-(2-chlorophenyl)-9-(4-chlorophenyl)-2-[(3R)-3-methoxypyrrolidin-1-yl]purin-6-yl]-4-methyl-piperidine-4-carboxamide] | 2.56 | 0.801
28 | C[C@@H](CO)N(C)c1nc(N2CCC(C)(C(N)=O)CC2)c2nc(-c3ccccc3Cl)n(-c3ccc(Cl)cc3)c2n1 [Compound 66, 1-[8-(2-chlorophenyl)-9-(4-chlorophenyl)-2-[[(1S)-2-hydroxy-1-methyl-ethyl]-methyl-amino]purin-6-yl]-4-methyl-piperidine-4-carboxamide] | 1.45 | 0.586
29 | CC1(C(N)=O)CCN(c2nc(-c3cnc[nH]3)nc3c2nc(-c2ccccc2Cl)n3-c2ccc(Cl)cc2)CC1 [Compound 45] | 39.9 | 5.85
30 | NC(=O)C1CCN(c2nc(N3CCC[C@H]3CO)nc3c2nc(-c2ccccc2Cl)n3-c2ccc(Cl)cc2)CC1 [Compound 154] | 7.28 | 0.813
31 | CN(CCO)c1nc(N2CCC(C)(C(N)=O)CC2)c2nc(-c3ccccc3)n(-c3ccc(Cl)cc3)c2n1 [Compound 48, 1-[9-(4-chlorophenyl)-2-[2-hydroxyethyl(methyl)amino]-8-phenyl-purin-6-yl]-4-methyl-piperidine-4-carboxamide] | 5.91 | 1.2
32 | C[C@H](O)COc1nc(N2CCC(C)(C(N)=O)CC2)c2nc(-c3ccccc3Cl)n(-c3ccc(Cl)cc3)c2n1 [Compound 80, 1-[8-(2-chlorophenyl)-9-(4-chlorophenyl)-2-[(2S)-2-hydroxypropoxy]purin-6-yl]-4-methyl-pi-peridine-4-carboxamide] | 5.09 | 1.02
33 | CC1(C(N)=O)CCN(c2nc(OC3CCCOC3)nc3c2nc(-c2ccccc2Cl)n3-c2ccc(Cl)cc2)CC1 (stereo not shown) [Compound 17, 1-[8-(2-chlorophenyl)-9-(4-chlorophenyl)-2-tetrahydropyran-3-yloxy-purin-6-yl]-4-methyl-piperidine-4-carboxamide] | 2.39 | 0.617
34 | CC1(C(N)=O)CCN(c2nc(S(C)(=O)=O)nc3c2nc(-c2ccccc2Cl)n3-c2ccc(Cl)cc2)CC1 [Compound 68, 1-[8-(2-chlorophenyl)-9-(4-chlorophenyl)-2-methylsulfonyl-purin-6-yl]-4-methyl-piperidine-4-carboxamide] | 10.7 | 1.69
35 | C[C@@H](CO)Oc1nc(N2CCC(C)(C(N)=O)CC2)c2nc(-c3ccccc3Cl)n(-c3ccc(Cl)cc3)c2n1 [Compound 82, 1-[8-(2-chlorophenyl)-9-(4-chlorophenyl)-2-[(1S)-2-hydroxy-1-methyl-ethoxy]purin-6-yl]-4-methyl-piperidine-4-carboxamide] | 4.49 | 0.753
